The results in this text go back to US10227324B2 (Shanghai Haiyan Pharmaceutical Technology Co., Ltd., priority 2014, dated 2019).

One test concerns T47D cells. Description: Cell inhibitory activity detected by MTT assay, T47D. The class given is cell-based. As to conditions: Homo sapiens, T47D, 72 h, read-out: T47D cell (IC50/nM), cell growth inhibition.
The next test deals with MCF-7 cells. As to the kind of experiment: Cell inhibitory activity detected by MTT assay, MCF-7. In kind it is cell-based. The following applies: Homo sapiens, MCF7, 72 h, read-out: MCF-7 cell (IC50/nM), cell growth inhibition. A digest of the protocol:
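MCF-7 cells in DMEM + 10% FBS were treated after adherence with compounds at 8 concentrations (0.0046–10 μM) for 72 h at 37 °C, 5% CO2.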
(Tetrazolium dyes change colour on reduction, which living cells bring about.)

Test [1] concerns the target T1, PI3K-α kinase (p110α/p85α) (Homo sapiens, UniProt P42336).
T1 construct: purchased Invitrogen PV4788
Description: Determination of PI3K kinase activity (ADP Transcreener, fluorescence polarization). The class given is biochemical. As to conditions: ATP 10 μM.

The target of test [2] is T2, PI3K-δ kinase (p110δ/p85α) (Homo sapiens, UniProt O00329).
T2 construct: purchased Millipore 14-604M
T2 sequence (O00329 whole entry): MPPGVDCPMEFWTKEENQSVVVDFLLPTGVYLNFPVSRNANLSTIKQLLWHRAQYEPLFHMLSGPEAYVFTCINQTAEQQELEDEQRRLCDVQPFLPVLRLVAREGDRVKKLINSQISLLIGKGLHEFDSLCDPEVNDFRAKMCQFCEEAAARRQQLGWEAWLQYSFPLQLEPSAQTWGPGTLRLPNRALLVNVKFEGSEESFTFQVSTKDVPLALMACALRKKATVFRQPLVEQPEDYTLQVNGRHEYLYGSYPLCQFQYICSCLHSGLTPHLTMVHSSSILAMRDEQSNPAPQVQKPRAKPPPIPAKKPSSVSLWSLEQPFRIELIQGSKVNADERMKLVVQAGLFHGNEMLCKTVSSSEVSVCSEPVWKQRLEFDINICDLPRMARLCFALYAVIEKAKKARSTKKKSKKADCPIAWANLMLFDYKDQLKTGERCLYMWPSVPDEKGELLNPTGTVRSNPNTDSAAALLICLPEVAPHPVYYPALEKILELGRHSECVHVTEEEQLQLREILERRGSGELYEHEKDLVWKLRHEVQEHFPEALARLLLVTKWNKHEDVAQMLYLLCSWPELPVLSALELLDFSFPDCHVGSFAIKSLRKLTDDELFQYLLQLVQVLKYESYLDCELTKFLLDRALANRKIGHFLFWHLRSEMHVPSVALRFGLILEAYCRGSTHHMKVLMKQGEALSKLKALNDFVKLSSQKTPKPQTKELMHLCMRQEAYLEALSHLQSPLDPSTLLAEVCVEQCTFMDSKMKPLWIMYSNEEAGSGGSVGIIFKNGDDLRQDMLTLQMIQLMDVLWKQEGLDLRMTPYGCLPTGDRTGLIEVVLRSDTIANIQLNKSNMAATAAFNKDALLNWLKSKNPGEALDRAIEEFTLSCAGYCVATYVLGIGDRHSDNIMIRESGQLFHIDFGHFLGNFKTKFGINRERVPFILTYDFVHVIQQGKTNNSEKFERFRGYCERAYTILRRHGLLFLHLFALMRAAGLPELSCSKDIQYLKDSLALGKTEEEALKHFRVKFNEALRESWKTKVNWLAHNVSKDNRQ
T2 sequence (P27986 whole entry partner): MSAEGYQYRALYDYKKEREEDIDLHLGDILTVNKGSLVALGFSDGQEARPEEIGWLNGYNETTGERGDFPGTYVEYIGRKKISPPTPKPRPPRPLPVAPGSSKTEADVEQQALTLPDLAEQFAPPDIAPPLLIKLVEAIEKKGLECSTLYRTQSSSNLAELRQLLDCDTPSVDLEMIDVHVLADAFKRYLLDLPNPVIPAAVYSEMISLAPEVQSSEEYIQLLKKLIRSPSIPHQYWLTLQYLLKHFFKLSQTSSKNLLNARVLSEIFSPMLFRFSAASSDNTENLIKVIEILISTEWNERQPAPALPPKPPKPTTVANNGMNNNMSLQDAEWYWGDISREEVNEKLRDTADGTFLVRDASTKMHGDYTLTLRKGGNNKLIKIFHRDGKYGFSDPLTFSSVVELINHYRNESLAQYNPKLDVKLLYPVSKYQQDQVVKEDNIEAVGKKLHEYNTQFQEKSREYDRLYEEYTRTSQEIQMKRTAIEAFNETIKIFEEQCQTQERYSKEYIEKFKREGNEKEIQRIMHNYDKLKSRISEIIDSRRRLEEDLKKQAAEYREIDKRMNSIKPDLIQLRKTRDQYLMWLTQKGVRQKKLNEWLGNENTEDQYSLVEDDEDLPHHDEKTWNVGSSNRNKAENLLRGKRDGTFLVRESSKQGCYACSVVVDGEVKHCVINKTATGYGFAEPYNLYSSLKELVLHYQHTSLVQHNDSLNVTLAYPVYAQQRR
Described as above. The class given is biochemical. The following applies: Table 1; ATP 10 μM; read-out: PI3K-δ/nM (IC50 of inhibitory activity against PI3K kinase).

The next test addresses T3, PI3K-γ kinase (p110γ) (Homo sapiens, UniProt P48736).
T3 construct: purchased Invitrogen PV4786
The test is described as above. The class given is biochemical. As to conditions: Table 1; ATP 10 μM; read-out: PI3K-γ/nM (IC50 of inhibitory activity against PI3K kinase). A digest of the protocol: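 Each 25 μL reaction held PI3K enzyme (p110α/p85α 3 ng, p110β/p85α 60 ng, p110δ/p85α 90 ng, or p110γ 100 ng), 10 μM ATP, 30 μM PIP2:PS and 2% DMSO, incubated 1 h at 25 °C. Compounds were tested in duplicate across a 3-fold series, 0.00046–1 μM as prepared. ADP was detected by Transcreener fluorescence polarization, quantified against an ADP/ATP standard curve, and IC50 fitted.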

Setting [3] is: Table 1, read-out: PI3K-α/nM (IC50 of inhibitory activity against PI3K kinase).
Setting [4] is: Table 2, read-out: PI3K-α/nM (IC50 of inhibitory activity against PI3K-α kinase).

Where two headings read alike, the source gives them in different places. Some results are limits rather than exact numbers.

T1 sequence (P42336 whole entry): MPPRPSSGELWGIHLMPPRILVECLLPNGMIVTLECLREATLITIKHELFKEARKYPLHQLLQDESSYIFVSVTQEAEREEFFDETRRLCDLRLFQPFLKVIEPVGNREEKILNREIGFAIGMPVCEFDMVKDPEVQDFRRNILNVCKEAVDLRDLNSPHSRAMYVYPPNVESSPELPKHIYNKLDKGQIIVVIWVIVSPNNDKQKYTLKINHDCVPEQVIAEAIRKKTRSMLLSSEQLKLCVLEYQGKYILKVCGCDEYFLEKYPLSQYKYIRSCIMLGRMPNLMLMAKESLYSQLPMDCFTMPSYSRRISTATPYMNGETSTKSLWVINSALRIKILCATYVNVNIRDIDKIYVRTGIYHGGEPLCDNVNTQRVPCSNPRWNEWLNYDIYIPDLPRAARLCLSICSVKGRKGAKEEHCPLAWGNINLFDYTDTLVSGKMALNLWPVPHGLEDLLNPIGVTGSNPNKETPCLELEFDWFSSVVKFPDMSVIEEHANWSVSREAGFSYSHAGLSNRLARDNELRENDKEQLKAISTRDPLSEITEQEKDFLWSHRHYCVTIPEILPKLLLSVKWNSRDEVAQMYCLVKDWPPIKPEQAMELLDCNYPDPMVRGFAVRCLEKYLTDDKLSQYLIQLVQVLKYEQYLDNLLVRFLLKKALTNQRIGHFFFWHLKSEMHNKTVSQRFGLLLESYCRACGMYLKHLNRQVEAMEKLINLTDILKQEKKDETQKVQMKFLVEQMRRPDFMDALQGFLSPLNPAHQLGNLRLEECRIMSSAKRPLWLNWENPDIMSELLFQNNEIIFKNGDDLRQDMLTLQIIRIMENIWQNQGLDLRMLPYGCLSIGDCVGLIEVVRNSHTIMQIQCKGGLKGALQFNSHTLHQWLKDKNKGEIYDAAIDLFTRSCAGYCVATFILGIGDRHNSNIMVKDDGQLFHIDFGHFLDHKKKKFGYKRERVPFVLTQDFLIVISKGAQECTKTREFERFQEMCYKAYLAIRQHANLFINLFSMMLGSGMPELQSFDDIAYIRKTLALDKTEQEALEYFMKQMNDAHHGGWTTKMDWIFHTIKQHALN
T1 sequence (P27986 whole entry partner): as the sequence (P27986 whole entry partner) above
T3 sequence (P48736 whole entry): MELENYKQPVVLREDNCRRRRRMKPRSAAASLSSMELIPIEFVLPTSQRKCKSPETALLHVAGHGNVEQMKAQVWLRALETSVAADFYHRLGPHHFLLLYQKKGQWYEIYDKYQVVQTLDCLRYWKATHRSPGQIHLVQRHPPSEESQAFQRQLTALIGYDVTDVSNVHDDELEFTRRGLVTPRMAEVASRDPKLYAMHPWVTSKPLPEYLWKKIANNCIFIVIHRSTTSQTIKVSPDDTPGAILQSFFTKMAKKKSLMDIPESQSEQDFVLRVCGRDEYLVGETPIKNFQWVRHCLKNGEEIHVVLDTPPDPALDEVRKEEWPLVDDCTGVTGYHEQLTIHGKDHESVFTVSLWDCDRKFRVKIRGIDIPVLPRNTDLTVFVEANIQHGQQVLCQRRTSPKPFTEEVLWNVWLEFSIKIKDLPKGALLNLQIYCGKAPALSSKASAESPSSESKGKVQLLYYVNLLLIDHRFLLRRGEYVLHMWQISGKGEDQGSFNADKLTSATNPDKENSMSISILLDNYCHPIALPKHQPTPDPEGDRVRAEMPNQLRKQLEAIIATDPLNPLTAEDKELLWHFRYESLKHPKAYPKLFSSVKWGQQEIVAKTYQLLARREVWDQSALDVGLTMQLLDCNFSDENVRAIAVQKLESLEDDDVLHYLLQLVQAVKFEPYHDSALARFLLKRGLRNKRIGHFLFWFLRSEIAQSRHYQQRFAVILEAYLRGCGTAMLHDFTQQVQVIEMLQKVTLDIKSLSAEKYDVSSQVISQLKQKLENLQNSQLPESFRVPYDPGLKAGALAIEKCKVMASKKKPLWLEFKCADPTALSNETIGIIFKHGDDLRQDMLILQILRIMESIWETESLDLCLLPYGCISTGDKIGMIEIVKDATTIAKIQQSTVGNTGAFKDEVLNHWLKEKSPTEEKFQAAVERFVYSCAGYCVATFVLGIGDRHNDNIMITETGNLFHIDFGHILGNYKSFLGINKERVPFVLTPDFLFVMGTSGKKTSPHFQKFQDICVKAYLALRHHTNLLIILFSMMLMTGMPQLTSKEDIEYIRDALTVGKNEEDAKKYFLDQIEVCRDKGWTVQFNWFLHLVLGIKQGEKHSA

As to `Nc1cc(C(F)(F)F)c(-c2cc(C3(S(=O)(=O)c4ccccc4F)CC3)nc(N3CCOCC3)n2)cn1` [Compound S-58], the IC50 is 129 nM in the test with T47D cells; 184 nM in the test on MCF-7 cells; 4 nM in test [1] (setting [3]); 33 nM in test [2]; 121 nM at PI3K-γ kinase (p110γ).

Take `Nc1cc(Cl)c(-c2cc(C3(S(=O)(=O)c4ccccc4F)CC3)nc(N3CCOCC3)n2)cn1` [Compound S-66]: the IC50 amounted to 147 nM in the test with T47D cells; 212 nM in the test on MCF-7 cells; 9 nM in test [1] (setting [3]); 9 nM in test [1] (setting [4]); 46 nM in test [2]; 160 nM at PI3K-γ kinase (p110γ).

For the molecule `C[C@@H]1COCCN1c1nc(-c2cnc(N)cc2Cl)cc(C(C)(C)S(C)(=O)=O)n1` [Compound S-67], the IC50 in the test on T47D cells is 88 nM; in the test with MCF-7 cells it was 105 nM; in test [1] (setting [3]), 6 nM; in test [1] (setting [4]), 6 nM; in test [2], 59 nM; on PI3K-γ kinase (p110γ), 113 nM.

With `C[C@@H]1COCCN1c1nc(-c2cnc(N)cc2Cl)cc(C2(S(C)(=O)=O)CC2)n1` [Compound S-68], the IC50 in the test with T47D cells is 73 nM; in the test on MCF-7 cells it was 94 nM; in test [1] (setting [3]), 8 nM; in test [1] (setting [4]), 8 nM; in test [2], 143 nM; at PI3K-γ kinase (p110γ) it was 184 nM.

On to `COC(C)(C)c1cc(-c2cnc(N)cc2Cl)nc(N2CCOC[C@@H]2C)n1` [Compound S-75], for which the IC50 amounted to 249 nM with T47D cells; 131 nM in the test with MCF-7 cells; 23 nM in test [1] (setting [3]); 23 nM in test [1] (setting [4]); 810 nM in test [2]; 654 nM at PI3K-γ kinase (p110γ).

For `COC(C)(C)c1cc(-c2cnc(N)cc2Cl)nc(N2CCOCC2)n1` [Compound S-76], the IC50 turned out to be 289 nM in the test on T47D cells; 66 nM in the test on MCF-7 cells; 53 nM in test [1] (setting [3]); 53 nM in test [1] (setting [4]); 207 nM in test [2]; 228 nM on PI3K-γ kinase (p110γ).

With `CC(C)(c1cc(-c2cnc(N)cc2F)nc(N2CCOCC2)n1)S(C)(=O)=O` [Compound S-81], the IC50 amounted to 123 nM in the test with T47D cells; 104 nM in the test with MCF-7 cells; 43 nM in test [1] (setting [3]); 178 nM in test [2]; 181 nM at PI3K-γ kinase (p110γ).

In the case of `CS(=O)(=O)C1(c2cc(-c3cnc(N)cc3F)nc(N3CCOCC3)n2)CC1` [Compound S-82], the IC50 was found to be 62 nM with T47D cells; 27 nM in the test on MCF-7 cells; 39 nM in test [1] (setting [3]); 132 nM in test [2]; 116 nM on PI3K-γ kinase (p110γ).

As to `C[C@H]1COCCN1c1nc(-c2cnc(N)cc2F)cc(C(C)(C)S(C)(=O)=O)n1` [Compound S-84], the IC50 worked out at 33 nM with T47D cells; 15 nM in the test on MCF-7 cells; 21 nM in test [1] (setting [3]); 18 nM in test [2]; 219 nM on PI3K-γ kinase (p110γ).

Take `CCS(=O)(=O)C1(c2cc(-c3cnc(N)cc3F)nc(N3CCOCC3)n2)CC1` [Compound S-85]: the IC50 in the test with T47D cells stood at 63 nM; with MCF-7 cells it was 25 nM; in test [1] (setting [3]), 29 nM; in test [1] (setting [4]) it was 29 nM; in test [2] it was 228 nM; at PI3K-γ kinase (p110γ) it was 244 nM.

On to `CC(C)S(=O)(=O)C1(c2cc(-c3cnc(N)cc3F)nc(N3CCOCC3)n2)CC1` [Compound S-86], for which the IC50 amounted to 69 nM with T47D cells; 29 nM in the test with MCF-7 cells; 26 nM in test [1] (setting [3]); 26 nM in test [1] (setting [4]); 397 nM in test [2]; 192 nM at PI3K-γ kinase (p110γ).

As to `Nc1cc(F)c(-c2cc(C3(S(=O)(=O)C4CC4)CC3)nc(N3CCOCC3)n2)cn1` [Compound S-88], the IC50 with T47D cells amounted to 81 nM; in the test on MCF-7 cells, 102 nM; in test [1] (setting [3]), 48 nM; in test [1] (setting [4]) it was 48 nM; in test [2], 209 nM; at PI3K-γ kinase (p110γ), 98 nM.

For the molecule `CS(=O)(=O)C1(c2cc(N3CCOCC3)nc(-c3cnc(N)cc3C(F)(F)F)n2)CC1` [reference compound], the IC50 in the test on T47D cells was 854 nM; in the test with MCF-7 cells, 639 nM; in test [1] (setting [3]), 90 nM; in test [2], 2580 nM; at PI3K-γ kinase (p110γ), greater than 3000 nM.
